Results from patent publication US20180369203A1, “METHODS OF TREATING CANCER BY ADMINISTERING A MEK INHIBITOR IN COMBINATION WITH A PROTEASOME INHIBITOR” (The Jackson Laboratory, priority 2015, published 2018).

What was measured:
[1] = tested on: A2058 cells; assay: A2058 s.c. melanoma xenograft in NOD/SCID mice; assay type: in vivo
Description: (§1) FIGS. 6A-N show combined MEK and proteasome inhibition exerts potent tumor-suppressive effects. (A) After treatments with 20 nM AZD6244, 100 nM Bortezomib, or both for 24 hr, viable cells were quantitated by CellTiter® Blue (mean±SD, n=6, ANOVA). (B and C) 1×10^6 A2058 cells were s.c. injected into NOD/SCID mice. After 7 days, mice were treated with DMSO, 5 mg/Kg AZD6244, 0.5 mg/Kg Bortezomib, or the combination via i.p. injection three times a week. Tumor volumes were measured using a caliper weekly (mean±SEM, ANOVA). Tumor growth curves were fitted to exponential growth models to derive tumor-doubling time (DT). Kaplan-Meier survival curve was plotted for each group (Log-rank test). (D) Proteins were detected by immunoblotting, 3 tumors per group. (E) Tumor lysates were used to quantitate AOs, 5 tumors per group (mean±SD, n=3, ANOVA). (F) Tumor lysates were used to seed Aβ1-42 peptides, 5 tumors per group (mean±SD, n=3, ANOVA). (G-H) Tumor sections were stained with CR, 5 tumors per group. Ten random fields were taken for each section. Scale bar: 50 μm. Total CR fluorescence in each field was quantitated using ImageJ and normalized against total nuclei (median, n=50, ANOVA). (I) Following CR staining, tumor sections were visualized under polarized light microscopy. Scale bar: 50 μm. (J) Following staining with AF-specific antibodies (OC), sections of tumors receiving combined treatment were further stained with CR. Scale bar: 50 μm. […] Body weights were monitored weekly (mean±SD, n=10, ANOVA). […]
FIG. 13A-J illustrates combined MEK and proteasome inhibition disrupts proteostasis and impedes in vivo tumor growth. […] Body weights were recorded before xenografting and at sacrifice. […] Quantitation of immunoblotting results in FIG. 6D (mean±SD, n=3, ANOVA). […] Lys48-specific protein ubiquitination and caspase 3 cleavage were measured by immunoblotting in 3 spleens per group.
(§2) A2058 cells were s.c. injected into the left flanks of 9-week-old female NOD.CB17-Prkdc/J (NOD/SCID) mice (The Jackson Laboratory). […] Tumor volumes were calculated following the formula 4/3πR^3. […]

[2] = tested on: A2058 cells; assay: Experimental melanoma metastasis, i.v. luciferase-expressing A2058 cells in NOD/SCID mice; assay type: in vivo; settings: n=10 per group
Description: as §1, with “Ten random fields were taken for each section. Scale bar: 50 μm.” left out, “ANOVA).” for “ANOVA). (I) Following CR staining, tumor sections were visualized under polarized light microscopy. Scale bar: 50 μm. (J) Following staining with AF-specific antibodies (OC), sections of tumors receiving combined treatment were further stained with CR. Scale bar: 50 μm.”
as §2

Compound: CC(C)C[C@H](NC(=O)[C@H](Cc1ccccc1)NC(=O)c1cnccn1)B(O)O [Bortezomib, bortezomib]
- growth of xenografted melanomas ([1]; 5 mg/Kg AZD6244, 0.5 mg/Kg Bortezomib or combination, i.p. three times a week): no significant impacts
- HSF1 Ser326 phosphorylation and HSP expression in tumors (stress response) ([1]; tumor immunoblotting): induced
- ubiquitination in tumors ([1]; tumor immunoblotting, 3 tumors per group): slightly elevated
- mice with luminescence detected by in vivo imaging [2]: 40%
